# Measurements published in US9394299B2, “Rilyazine derivatives and compositions for the treatment of cancer” (Warner Babcock Institute for Green Chemistry, LLC, priority 2013, dated 2016).
# Key:
# MCF-7 cells = test: MTT cell proliferation assay, MCF-7; assay type: cell-based; details: 72 h-exposure, 30-0.041 μM
# Experimental: (§1) In vitro characterizing of the effects of rilyazine analogs on cell proliferation and apoptosis in the paired epithelial/mesenchymal lines (Colo205/Colo-R, DLD/DLD-SNAIL and MCF7/MCF7-WISP) was performed in an independent laboratory.
# (§2) The Dose Preparation is based on a reconstitute in DMSO. The Concentration of the stock solution is 100 mM. Storage of the stock solution is under −80° C.
# (§3) Working drug solution of rilyazine analogs: A stock solution of 100 mM OTX015 in DMSO was prepared and stored at −80° C. For growth inhibition studies, dilution series were prepared by (1) diluting stock solution into DMSO, then (2) diluting 1:300 in culture medium supplemented with 10% FBS giving a final concentration in 0.3% DMSO in the 96-well plates.
# (§4) Cell lines. Cells lines were maintained in RPMI 1640 (PAA Laboratories, France) supplemented with 10% fetal bovine serum (FBS; PAA Laboratories, France), 2 mM glutamine (PAA Laboratories, France), 100 units/ml penicillin and 100 μg/ml streptomycin (PAA Laboratories, France). Cells were free of Mycoplasma.
# (§5) Proliferation assays. Cell proliferation was determined using the MTT assay (3-[4,5-dimethylthiazol-2-yl]-2,5-diphenyltetrazolium bromide; Sigma-Aldrich, St. Louis, Mo.). […] After incubation, the supernatant was discarded, the cell pellet was resuspended in 0.1 mL DMSO, and the absorbance was measured at 560 nm using a microplate reader (Thermo, France). […]
# MCF-shWISP cells = test: MTT cell proliferation assay, MCF-shWISP; assay type: cell-based; details: 72 h-exposure, 30-0.041 μM
# Experimental: as §1, §2, §3, §4, §5
# MALME-3M (Melanoma) = test: NCI single point 10 μM, MALME-3M; assay type: cell-based, human; details: 10^−5 M
# Experimental: The screening is a two-stage process, beginning with the evaluation of all compounds against 60 cell lines at a single dose of 10^−5 M.
# The human tumor cell lines of the cancer screening panel are grown in RPMI 1640 medium containing 5% fetal bovine serum and 2 mM L-glutamine. Cells are inoculated into 96 well microtiter plates in 100 μL at plating densities ranging from 5,000 to 40,000 cells/well depending on the doubling time of individual cell lines. After cell inoculation, the microtiter plates are incubated at 37° C., 5% CO2, 95% air and 100% relative humidity for 24 h prior to addition of experimental drugs. […]
# Following drug addition, the plates are incubated for an additional 48 h at 37° C., 5% CO2, 95% air, and 100% relative humidity. […] Bound stain is subsequently solubilized with 10 mM trizma base, and the absorbance is read on an automated plate reader at a wavelength of 515 nm. […]
# For the 1-dose 60 cell testing, the Growth Percent is calculated for each cell line/drug combination from the absorbance measurement for the no-drug control (C), the absorbance at time zero (Tz) and the absorbance measurement after incubation of the cells in the presence of drug (Ti): Growth Percent=[(Ti−Tz)/(C−Tz)]×100 for cell line/drug combinations for which Ti≧Tz. […]
smiles,measurement,setting,value
"S=c1c2ncccc2c(-c2ccccn2)nn1C1CCCCC1 [RL-4, 7-cyclohexyl-5-(pyridin-2-yl)pyrido[2,3-d]pyridazine-8(7H)-thione]",anti-proliferative effects (in words),MCF-7 cells,dose-dependent anti-proliferative effects
same,anti-proliferative effects (in words),MCF-shWISP cells,dose-dependent anti-proliferative effects
same,Growth Percent,MALME-3M (Melanoma),98.97%
